Experimental data: PMC12664280, “Integrative transcriptomics and peptidomics approach reveals unexpectedly diverse endogenous secretory peptides in Odorrana grahami frog skin” (BMC Biology, 2025)
≈ marks a conversion by molar mass, not a printed value. Where a SMILES comes first, the peptide text is derived from it. Bridges are numbered along the chain shown (N, C = ends).

Columns and labels:
Format in all cases: cell-based
[1] = tested on: Enterococcus faecalis ATCC 29212; test: microbe, parasite or virus in culture
Experimental: (§1) Ranatuerin-2P-OG1 synthesis was performed by Royobiotech Co., Ltd. (Shanghai, China) using solid-phase peptide synthesis. The crude peptide was purified by RP-HPLC and its purity was confirmed to exceed 90% via ESI-MS analysis. Antimicrobial assays with various microbial strains were conducted, including gram-positive Staphylococcus aureus ATCC 29213 and its methicillin-resistant variant (MRSA) CIB 8546, Enterococcus faecalis ATCC 29212, gram-negative Pseudomonas aeruginosa ATCC 27853 and Escherichia coli ATCC 25922, and fungal Candida albicans CCMCC(F) 98001. Bacterial cultures were maintained in cation-adjusted Mueller-Hinton broth (MHB) at 35°C for 16-20 h, whereas fungal cultures were grown in Sabouraud dextrose broth (SDB) at 28°C for 48 h.

[2] = tested on: Escherichia coli ATCC 25922; test: microbe, parasite or virus in culture
Experimental: as §1

[3] = tested on: Staphylococcus aureus ATCC 29213; test: microbe, parasite or virus in culture
Experimental: as §1

[4] = tested on: methicillin-resistant Staphylococcus aureus (MRSA) CIB 8546; test: microbe, parasite or virus in culture
Experimental: as §1

[5] = tested on: Candida albicans CCMCC(F) 98001
Experimental: as §1

[6] = tested on: Pseudomonas aeruginosa ATCC 27853; test: Antimicrobial assay, MIC by broth microdilution; conditions: ATCC27853, highest test concentration 128 μg/mL, read-out: minimum inhibitory concentration (MIC), Pseudomonas aeruginosa
Experimental: as §1

| minimum inhibitory concentration (MIC), Enterococcus faecalis ([1]; ATCC 29212) [µg/mL] | minimum inhibitory concentration (MIC), Escherichia coli ([2]; ATCC 25922) [µg/mL] | minimum inhibitory concentration (MIC), Staphylococcus aureus ([3]; ATCC 29213) [µg/mL] | minimum inhibitory concentration (MIC), MRSA ([4]; methicillin-resistant CIB 8546) [µg/mL] | minimum inhibitory concentration (MIC), Candida albicans [5] [µg/mL] | MIC ([1]; ATCC29212, broth microdilution, Enterococcus faecalis ATCC 29212, read-out: minimum inhibitory concentration (MIC), Enterococcus faecalis) [µg/mL] | MIC ([2]; ATCC25922, broth microdilution, Escherichia coli ATCC 25922, read-out: minimum inhibitory concentration (MIC), Escherichia coli) [µg/mL] | MIC ([3]; ATCC29213, broth microdilution, Staphylococcus aureus ATCC 29213, read-out: minimum inhibitory concentration (MIC), Staphylococcus aureus) [µg/mL] | MIC ([4]; Staphylococcus aureus, broth microdilution, MRSA CIB 8546, read-out: minimum inhibitory concentration (MIC), MRSA) [µg/mL] | MIC [6] [µg/mL] | Compound |
| --- | --- | --- | --- | --- | --- | --- | --- | --- | --- | --- |
| 256 (≈ 84.7 µM) | 128 (≈ 42.3 µM) | 64 (≈ 21.2 µM) | 64 (≈ 21.2 µM) | 512 (≈ 169 µM) |  |  |  |  |  | CC[C@H](C)[C@H](NC(=O)[C@H](CCCCN)NC(=O)[C@H](CC(=O)O)NC(=O)[C@H](CCCCN)NC(=O)[C@@H](NC(=O)[C@@H](NC(=O)CNC(=O)[C@H](C)NC(=O)[C@@H](NC(=O)[C@H](CC(N)=O)NC(=O)[C@@H](NC(=O)[C@H](CC(C)C)NC(=O)[C@@H](NC(=O)[C@H](CC(N)=O)NC(=O)[C@H](CC(C)C)NC(=O)[C@@H](NC(=O)[C@@H](NC(=O)[C@H](CC(N)=O)NC(=O)[C@H](CCSC)NC(=O)[C@H](CC(C)C)NC(=O)CN)[C@@H](C)O)C(C)C)C(C)C)[C@@H](C)O)C(C)C)[C@@H](C)O)C(C)C)C(=O)N[C@@H](CCCCN)C(=O)N[C@H]1CSSC[C@@H](C(=O)O)NC(=O)CNC(=O)CNC(=O)[C@H]([C@@H](C)O)NC(=O)[C@H](Cc2ccccc2)NC(=O)[C@H](CCCCN)NC1=O [ranatuerin-2P-OG1] (H-GLMNTVLNVLTNVAGTVKDKIKCKFTGGC-OH; disulfide 23-29) |
|  |  |  |  |  | 2 (≈ 5.72 µM) | 8 (≈ 22.9 µM) | 1 (≈ 2.86 µM) | 128 (≈ 366 µM) | > 128 | CC1(C)S[C@@H]2[C@H](NC(=O)[C@H](N)c3ccccc3)C(=O)N2[C@H]1C(=O)O [Ampicillin, reference compound] |
